Data published in US20170131285A1, “METHODS AND COMPOSITIONS FOR DIAGNOSING, MONITORING AND TREATING CANCER” (INSERM (Institut National de la Sante et de la Recherche …, priority 2014, published 2017).
Where no end group is shown, it is not given here.

Tests used:
[1] = tested on: MSC2 cells; assay: pSTAT3 western blot in MSC2 cells incubated with tumor-derived exosomes; format: cell-based
Description: (§1) FIG. 4: A8 blocks the activation and proliferation of MSC2 cells. (A) IL-6 concentration was determined by ELISA in the supernatant of MSC2 cells incubated or not for 24 h with exosomes (from B16F10) in the presence or absence of A8. *, p<0.05, (n=3). (B) A representative image of a western blot showing the kinetics of STAT3 phosphorylation in MCS2 cells incubated or not with exosomes isolated from B16F10, CT26 or HCT116 cells together with a peptide control (TDE) or A8 (TDE/A8). 14-3-3 is used as a loading control. In the right panels, the amount of pSTAT3 was quantified by densitometric analysis. *, p<0.05, n=4.
Five millions of MSC2 cells were incubated with or without exosomes isolated from B16F10, CT26, HCT116 or SW480 cells in the presence or absence of A8 during 4 h or 6 h. Cells were isolated, lysed and analysed for pSTAT3 by western blotting.
MSC2 (2·10^6) or MDSC (2·10^6) were incubated alone or with exosomes (from B16F10, CT26, HCT116, SW480) in the absence or presence of A8 or A17 (16 μM) during 6 hours (RPMI 10% FBS, 5% of CO2 at 37° C.). Every 2 hours, […] cells were sampled and centrifugated 5 min at 300 g. Cells were lysed in lysis buffer (50 mM HEPES (pH 7.6), 150 mM NaCl, 5 mM EDTA, and 0.1% NP40 and anti-phosphatases, Roche). Then, pSTAT3 and STAT3 expression were analyzed by western blotting.

[2] = tested on: MSC2 cells; assay: IL-6 ELISA in supernatant of MSC2 cells incubated with exosomes; format: cell-based; conditions: exosomes from B16F10, 24 h
Description: as §1
MSC2 cells were incubated alone or co-incubated with exosomes from B16F10 cells and/or A8 (during 24 h). Then, the supernatant was collected and centrifuged at 300 g at 4° C. for 5 min and analyzed with IL-6 ELISA assay (BD biosciences) according to the manufacturers' protocol.
Supernatants, collected from MSC2 or MDSC or co-cultured cells incubated alone or with exosomes from B16F10 cells and/or A8 (8 or 16 μM) were analyzed with IL-6, IL-10 and IFN gamma ELISA assay (BD biosciences) according to the manufacturers' protocol.

[3] = tested on: membrane HSP70 on tumor-derived exosomes (B16F10, HCT116); assay: BLI binding of tumor-derived exosomes to immobilized biotinylated A8, with or without cmHSP70
Description: FIG. 1: Tumor-derived exosomes in cancer patient′ samples express HSP70. (A) The binding of exosomes (10^6), derived from the B16F10, HCT116 cell lines, with or without previous incubation with cmHSP70, to immobilized biotinylated A8 was determined by biolayer interferometry. (B) Association curves of HSP70-exosomes in patients' urines (1 breast, 1 pulmonary) or healthy individuals (controls) with biotinylated A8 immobilized on streptavidin sensor tips. Curves represent mean values of triplicate measurements for each concentration. (C) Exosomes expressing HSP70 were determined by FACS in urine samples from healthy individuals (n=5) and cancer metastatic cancer patients (5 breast, 4 pulmonary). The bar graph presents the means and standard deviations of the vesicle concentrations. (D) Nanoparticle Tracking Analysis (NTA) to quantify total number of exosomes in urine human samples (urines) described above. Samples were diluted in PBS and analyzed using a NanoSight LM10 instrument. Inset values represent the total number of exosomes counted 10̂^9/ml.
Protein-protein interaction experiments were conducted at 25° C. in PBS with an Octet Red instrument (Forte Bio, Menlo Park, Calif., USA) by biolayer interferometry (BLI). […] Each KD was determined with a 1:1 stoichiometry model using a global fit with Rmax unlinked by sensor (Forte Bio, Data analysis software version 7.1.0.89). […]

- capture of exosomes through interaction with membrane-HSP70 ([3]; immobilized biotinylated A8, exosomes (10^6)): efficiently captured exosomes
Sequence: SPWPRPTY [Aptamer A8, SPWPRPTY]
- STAT3 phosphorylation (activation) in MSC2 induced by tumor-derived exosomes ([1]; exosomes from CT26, B16F10, HCT116, SW480, 4 h and 6 h, aptamer 16 μM): inhibited the ability of tumor-derived exosomes to activate STAT3
- MDSC activation (STAT3 phosphorylation in MSC2) in the absence of tumor-derived exosomes ([1]; no exosomes): does not have a direct effect in MDSC activation
- IL-6 production by MSC2 stimulated by tumor-derived exosomes [2]: abrogated
- ability of cmHSP70 to bind to HSP70 (competition) [3]: in a dose dependent manner, decreased the ability of cmHSP70 to bind to HSP70
